# Laboratory results reported in ChEMBL document CHEMBL1201862, “PubChem BioAssay data set” (2004).
#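 Growth conditions: 96-well plates. Treatment: test compound, 48 hours, 5 concentrations. Analysis: linear interpolation between bracketing concentrations; unreached endpoints set to highest concentration. GI50 marks 50% less growth.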 Active and inactive are the calls of the source. Rule as the data show it: active = GI50 up to about 1.1 µM and inactive = higher.
# Assays:
# Test in all cases: growth of human tumour cells (NCI), 48 h
# NCI-H460 = test system: NCI-H460
# SK-MEL-2 = test system: SK-MEL-2
# SN12C = test system: SN12C
# SNB-75 = test system: SNB-75
# SNB-19 = test system: SNB-19
# A549 = test system: A549
# UO-31 = test system: UO-31
# UACC-62 = test system: UACC-62
# 786-0 = test system: 786-0
# TK-10 = test system: TK-10
# SW-620 = test system: SW-620
# OVCAR-5 = test system: OVCAR-5
# M14 = test system: M14
# HOP-62 = test system: HOP-62
# RPMI-8226 = test system: RPMI-8226
# NCI-H226 = test system: NCI-H226
# Malme-3M = test system: Malme-3M
# HCC 2998 = test system: HCC 2998
# MOLT-4 = test system: MOLT-4
# IGROV-1 = test system: IGROV-1
# NCI-H522 = test system: NCI-H522
# SR = test system: SR
# HOP-92 = test system: HOP-92
# HL-60 = test system: HL-60
# SF-539 = test system: SF-539
# HCT-15 = test system: HCT-15
# SK-MEL-28 = test system: SK-MEL-28
# HT-29 = test system: HT-29
# RXF 631 = test system: RXF 631
# SF-268 = test system: SF-268
# UACC-257 = test system: UACC-257
# DLD-1 = test system: DLD-1
# SNB-78 = test system: SNB-78
# HCT-116 = test system: HCT-116
# OVCAR-4 = test system: OVCAR-4
# K562 = test system: K562
# OVCAR-3 = test system: OVCAR-3
# KM12 = test system: KM12
# CAKI-1 = test system: CAKI-1
# U-251 = test system: U-251
# KM-20L2 = test system: KM-20L2
# M19-MEL = test system: M19-MEL
# COLO 205 = test system: COLO 205
# OVCAR-8 = test system: OVCAR-8
# SK-OV-3 = test system: SK-OV-3
# SF-295 = test system: SF-295
# NCI-H23 = test system: NCI-H23
# DMS-273 = test system: DMS-273
# LOX IMVI = test system: LOX IMVI
# LXFL 529 = test system: LXFL 529
# ACHN = test system: ACHN
# SK-MEL-5 = test system: SK-MEL-5
# XF498 = test system: XF498
# CCRF-CEM = test system: CCRF-CEM
# EKVX = test system: EKVX
# DMS-114 = test system: DMS-114
# RXF 393 = test system: RXF 393
# HOP-18 = test system: HOP-18
# A498 = test system: A498
smiles,measurement,setting,value
CCOC(=O)C1=C(Nc2ccccc2)SCC1=O,GI50,NCI-H460,> 100 µM (inactive)
same,GI50,SK-MEL-2,> 100 µM (inactive)
same,GI50,SN12C,> 100 µM (inactive)
same,GI50,SNB-75,> 100 µM (inactive)
same,GI50,SNB-19,> 100 µM (inactive)
same,GI50,A549,> 100 µM (inactive)
same,GI50,UO-31,> 100 µM (inactive)
same,GI50,UACC-62,> 100 µM (inactive)
same,GI50,786-0,> 100 µM (inactive)
same,GI50,TK-10,> 100 µM (inactive)
same,GI50,SW-620,> 100 µM (inactive)
same,GI50,OVCAR-5,> 100 µM (inactive)
same,GI50,M14,> 100 µM (inactive)
same,GI50,HOP-62,> 100 µM (inactive)
same,GI50,RPMI-8226,> 100 µM (inactive)
same,GI50,NCI-H226,> 100 µM (inactive)
same,GI50,Malme-3M,> 100 µM (inactive)
same,GI50,HCC 2998,> 100 µM (inactive)
same,GI50,MOLT-4,> 100 µM (inactive)
same,GI50,IGROV-1,> 100 µM (inactive)
same,GI50,NCI-H522,> 100 µM (inactive)
same,GI50,SR,> 100 µM (inactive)
same,GI50,HOP-92,> 100 µM (inactive)
same,GI50,HL-60,> 100 µM (inactive)
same,GI50,SF-539,> 100 µM (inactive)
same,GI50,HCT-15,> 100 µM
same,GI50,SK-MEL-28,> 100 µM (inactive)
same,GI50,HT-29,> 100 µM (inactive)
same,GI50,RXF 631,> 100 µM (inactive)
same,GI50,SF-268,> 100 µM (inactive)
same,GI50,UACC-257,> 100 µM (inactive)
same,GI50,DLD-1,> 100 µM (inactive)
same,GI50,SNB-78,> 100 µM (inactive)
same,GI50,HCT-116,> 100 µM (inactive)
same,GI50,OVCAR-4,63.2 µM (inactive)
same,GI50,K562,> 100 µM (inactive)
same,GI50,OVCAR-3,> 100 µM (inactive)
same,GI50,KM12,> 100 µM (inactive)
same,GI50,CAKI-1,> 100 µM (inactive)
same,GI50,U-251,10 µM (inactive)
same,GI50,KM-20L2,> 100 µM (inactive)
same,GI50,M19-MEL,> 100 µM (inactive)
same,GI50,COLO 205,> 100 µM (inactive)
same,GI50,OVCAR-8,> 100 µM (inactive)
same,GI50,SK-OV-3,> 100 µM (inactive)
same,GI50,SF-295,> 100 µM (inactive)
same,GI50,NCI-H23,> 100 µM (inactive)
same,GI50,DMS-273,> 100 µM (inactive)
same,GI50,LOX IMVI,> 100 µM (inactive)
same,GI50,LXFL 529,> 100 µM (inactive)
same,GI50,ACHN,> 100 µM (inactive)
CC1=CC2CCC1(C)C/C2=C(/C)OC=O (stereo not given),GI50,NCI-H460,> 100 µM (inactive)
same,GI50,SK-MEL-2,> 100 µM (inactive)
same,GI50,SN12C,> 100 µM (inactive)
same,GI50,SNB-75,> 100 µM (inactive)
same,GI50,SNB-19,> 100 µM (inactive)
same,GI50,A549,> 100 µM (inactive)
same,GI50,UO-31,> 100 µM (inactive)
same,GI50,UACC-62,> 100 µM (inactive)
same,GI50,SK-MEL-5,> 100 µM (inactive)
same,GI50,786-0,> 100 µM (inactive)
same,GI50,XF498,> 100 µM (inactive)
same,GI50,TK-10,> 100 µM (inactive)
same,GI50,SW-620,> 100 µM (inactive)
same,GI50,OVCAR-5,> 100 µM (inactive)
same,GI50,M14,> 100 µM (inactive)
same,GI50,HOP-62,> 100 µM (inactive)
same,GI50,RPMI-8226,> 100 µM (inactive)
same,GI50,NCI-H226,> 100 µM (inactive)
same,GI50,MOLT-4,> 100 µM (inactive)
same,GI50,IGROV-1,> 100 µM (inactive)
same,GI50,NCI-H522,> 100 µM (inactive)
same,GI50,SR,> 100 µM (inactive)
same,GI50,HOP-92,> 100 µM (inactive)
same,GI50,HL-60,> 100 µM (inactive)
same,GI50,SF-539,> 100 µM (inactive)
same,GI50,HCT-15,> 100 µM
same,GI50,SK-MEL-28,> 100 µM (inactive)
same,GI50,CCRF-CEM,> 100 µM (inactive)
same,GI50,HT-29,> 100 µM (inactive)
same,GI50,SF-268,> 100 µM (inactive)
same,GI50,EKVX,> 100 µM (inactive)
same,GI50,UACC-257,> 100 µM (inactive)
same,GI50,DMS-114,> 100 µM (inactive)
same,GI50,DLD-1,> 100 µM (inactive)
same,GI50,SNB-78,> 100 µM (inactive)
same,GI50,HCT-116,> 100 µM (inactive)
same,GI50,OVCAR-4,> 100 µM (inactive)
same,GI50,K562,> 100 µM (inactive)
same,GI50,OVCAR-3,> 100 µM (inactive)
same,GI50,KM12,> 100 µM (inactive)
same,GI50,CAKI-1,> 100 µM (inactive)
same,GI50,U-251,> 100 µM (inactive)
same,GI50,KM-20L2,> 100 µM (inactive)
same,GI50,M19-MEL,> 100 µM (inactive)
same,GI50,RXF 393,> 100 µM (inactive)
same,GI50,COLO 205,> 100 µM (inactive)
same,GI50,OVCAR-8,> 100 µM (inactive)
same,GI50,SK-OV-3,> 100 µM (inactive)
same,GI50,SF-295,> 100 µM (inactive)
same,GI50,NCI-H23,> 100 µM (inactive)
same,GI50,DMS-273,> 100 µM (inactive)
same,GI50,LOX IMVI,> 100 µM (inactive)
same,GI50,LXFL 529,> 100 µM (inactive)
same,GI50,ACHN,> 100 µM (inactive)
same,GI50,HOP-18,> 100 µM (inactive)
Nc1ncnc2c1ncn2C1CC(OC2CCCCO2)C(CO)O1 (stereo not given),GI50,NCI-H460,> 100 µM (inactive)
same,GI50,SK-MEL-2,> 100 µM (inactive)
same,GI50,SN12C,> 100 µM (inactive)
same,GI50,SNB-19,> 100 µM (inactive)
same,GI50,A549,> 100 µM (inactive)
same,GI50,UO-31,> 100 µM (inactive)
same,GI50,786-0,> 100 µM (inactive)
same,GI50,XF498,> 100 µM (inactive)
same,GI50,TK-10,> 100 µM (inactive)
same,GI50,SW-620,> 100 µM (inactive)
same,GI50,OVCAR-5,> 100 µM (inactive)
same,GI50,M14,> 100 µM (inactive)
same,GI50,HOP-62,> 100 µM (inactive)
same,GI50,RPMI-8226,> 100 µM (inactive)
same,GI50,NCI-H226,> 100 µM (inactive)
same,GI50,Malme-3M,> 100 µM (inactive)
same,GI50,HCC 2998,> 100 µM (inactive)
same,GI50,MOLT-4,61.8 µM (inactive)
same,GI50,IGROV-1,> 100 µM (inactive)
same,GI50,NCI-H522,> 100 µM (inactive)
same,GI50,SR,> 100 µM (inactive)
same,GI50,HOP-92,> 100 µM (inactive)
same,GI50,HL-60,> 100 µM (inactive)
same,GI50,SF-539,> 100 µM (inactive)
same,GI50,HCT-15,> 100 µM
same,GI50,SK-MEL-28,> 100 µM (inactive)
same,GI50,CCRF-CEM,> 100 µM (inactive)
same,GI50,HT-29,> 100 µM (inactive)
same,GI50,SF-268,> 100 µM (inactive)
same,GI50,EKVX,67.5 µM (inactive)
same,GI50,UACC-257,> 100 µM (inactive)
same,GI50,DMS-114,> 100 µM (inactive)
same,GI50,DLD-1,> 100 µM (inactive)
same,GI50,SNB-78,> 100 µM (inactive)
same,GI50,HCT-116,> 100 µM (inactive)
same,GI50,OVCAR-4,> 100 µM (inactive)
same,GI50,K562,> 100 µM (inactive)
same,GI50,OVCAR-3,> 100 µM (inactive)
same,GI50,KM12,> 100 µM (inactive)
same,GI50,U-251,> 100 µM (inactive)
same,GI50,KM-20L2,> 100 µM (inactive)
same,GI50,M19-MEL,> 100 µM (inactive)
same,GI50,A498,> 100 µM (inactive)
same,GI50,RXF 393,> 100 µM (inactive)
same,GI50,COLO 205,> 100 µM (inactive)
same,GI50,OVCAR-8,> 100 µM (inactive)
same,GI50,SK-OV-3,> 100 µM (inactive)
same,GI50,SF-295,> 100 µM (inactive)
same,GI50,NCI-H23,> 100 µM (inactive)
same,GI50,DMS-273,> 100 µM (inactive)
same,GI50,LOX IMVI,> 100 µM (inactive)
same,GI50,LXFL 529,> 100 µM (inactive)
same,GI50,ACHN,> 100 µM (inactive)
same,GI50,HOP-18,> 100 µM (inactive)
